Assay results from publication PMC10795032 (ACS Omega, 2024).

What was measured:
Format in all cases: cell-based, human
[1] = tested on: U87-MG cells; details: 5 μM with 20 μM CQ, 24 h, CCK-8
[2] = tested on: U87-MG cells; experiment: Annexin V-FITC/PI flow cytometry apoptosis assay; details: 5 μM, 24 h
[3] = tested on: cleaved caspase-3; experiment: Western blot, cleaved caspase-3; details: U87-MG, 5 μM, 24 h
[4] = tested on: LC3; experiment: Western blot, LC3-I to LC3-II conversion; details: U87-MG, 24 h
[5] = tested on: p62/SQSTM1; experiment: Western blot, autophagic flux marker p62/SQSTM1; details: U87-MG, 5 μM, 24 h
[6] = tested on: pAKT; experiment: Western blot, phosphorylation of AKT; details: U87-MG, 5 μM, 24 h
[7] = tested on: p-mTOR; experiment: Western blot, phosphorylation of mTOR; details: U87-MG, 5 μM, 24 h

## COc1cc2ncnc(Nc3ccc(F)c(Cl)c3)c2cc1OCCCN1CCOCC1 [Gefitinib]
[1]
  increase in cell death along with CQ compared with treated alone: 2.09%
[2]
  apoptosis rate (Annexin-V-positive cells): 44.16%
[3]
  cleaved caspase-3 expression: cleaved caspase-3 expression can be seen
[4]; 5 μM with 20 μM CQ
  conversion of LC3-II on co-incubation with CQ: significantly increases
[4]; 5 μM
  conversion of LC3-I to LC3-II: able to induce autophagy
[5]
  expression of p62: partially downregulate
[6]
  phosphorylation of AKT: potent in inhibiting
[7]
  phosphorylation of mTOR: potent in inhibiting
